# Experimental data taken from ChEMBL document CHEMBL4732163 (Eur J Med Chem, 2021).
# Tests used:
# dengue virus type 2 = assay: Antiviral activity against DENV-2 New Guinea C infected in human Huh-7 cells preincubated for 1 hr followed by viral infection and measured after 48 hrs by Renilla luciferase reporter gene assay
# [1] = Cytotoxicity against DENV-2 New Guinea C infected human Huh-7 cells assessed as reduction in cell viability preincubated for 1 hr followed by viral infection and measured after 48 hrs by Alamar blue assay; type: cell-based; settings: Huh-7 cells infected with DENV-2 New Guinea C, time 49 hrs
# [2] = target: T1, Cyclin-G-associated kinase (Homo sapiens, UniProt O14976); assay: Inhibition of tracer 222 binding to GAK (unknown origin) incubated for 1 hr by Lanthascreen TR-FRET assay
# T1 sequence (O14976 whole entry): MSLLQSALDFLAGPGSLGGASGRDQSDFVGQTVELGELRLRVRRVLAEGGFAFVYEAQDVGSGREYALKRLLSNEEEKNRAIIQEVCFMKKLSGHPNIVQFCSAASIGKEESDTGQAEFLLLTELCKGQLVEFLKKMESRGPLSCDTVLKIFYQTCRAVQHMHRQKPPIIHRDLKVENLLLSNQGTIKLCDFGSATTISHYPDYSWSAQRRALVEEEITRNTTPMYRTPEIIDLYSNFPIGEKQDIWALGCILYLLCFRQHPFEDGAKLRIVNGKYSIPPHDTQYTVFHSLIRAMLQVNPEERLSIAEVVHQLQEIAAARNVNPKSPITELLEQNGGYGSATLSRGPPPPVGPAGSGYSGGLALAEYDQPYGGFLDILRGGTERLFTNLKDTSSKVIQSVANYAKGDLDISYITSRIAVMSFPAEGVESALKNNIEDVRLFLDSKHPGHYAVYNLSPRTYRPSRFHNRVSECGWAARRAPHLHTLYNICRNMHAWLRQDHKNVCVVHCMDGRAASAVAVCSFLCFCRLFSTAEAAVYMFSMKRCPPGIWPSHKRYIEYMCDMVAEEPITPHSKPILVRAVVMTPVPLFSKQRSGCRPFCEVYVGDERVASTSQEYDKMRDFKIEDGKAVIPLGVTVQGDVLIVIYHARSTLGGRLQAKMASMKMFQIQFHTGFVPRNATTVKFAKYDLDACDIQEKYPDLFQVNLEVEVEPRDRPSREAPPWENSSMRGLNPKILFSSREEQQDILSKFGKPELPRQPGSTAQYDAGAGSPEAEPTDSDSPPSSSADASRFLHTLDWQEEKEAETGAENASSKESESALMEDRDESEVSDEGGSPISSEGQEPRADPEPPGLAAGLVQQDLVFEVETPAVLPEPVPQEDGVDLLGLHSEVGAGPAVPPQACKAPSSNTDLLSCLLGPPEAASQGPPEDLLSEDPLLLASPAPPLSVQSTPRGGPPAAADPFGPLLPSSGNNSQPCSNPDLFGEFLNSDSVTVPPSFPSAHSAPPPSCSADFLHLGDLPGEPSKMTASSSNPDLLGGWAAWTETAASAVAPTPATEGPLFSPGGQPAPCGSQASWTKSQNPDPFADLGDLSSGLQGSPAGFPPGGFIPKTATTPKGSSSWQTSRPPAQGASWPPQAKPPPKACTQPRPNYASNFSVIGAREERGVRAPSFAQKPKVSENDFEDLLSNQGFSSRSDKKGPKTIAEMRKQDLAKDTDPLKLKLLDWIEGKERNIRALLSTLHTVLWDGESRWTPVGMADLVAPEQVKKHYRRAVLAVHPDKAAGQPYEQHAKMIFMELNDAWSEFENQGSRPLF
# [3] = target: Cyclin-dependent kinase 7 (Homo sapiens) (UniProt P50613); assay: Inhibition of wild-type human full length CDK7 (M1 to L344 residues) expressed in mammalian expression system assessed as residual activity at 10 uM by Kinomescan method relative to control
# Chain of Cyclin-dependent kinase 7 (Homo sapiens) (P50613 whole entry, the tested form may be a part): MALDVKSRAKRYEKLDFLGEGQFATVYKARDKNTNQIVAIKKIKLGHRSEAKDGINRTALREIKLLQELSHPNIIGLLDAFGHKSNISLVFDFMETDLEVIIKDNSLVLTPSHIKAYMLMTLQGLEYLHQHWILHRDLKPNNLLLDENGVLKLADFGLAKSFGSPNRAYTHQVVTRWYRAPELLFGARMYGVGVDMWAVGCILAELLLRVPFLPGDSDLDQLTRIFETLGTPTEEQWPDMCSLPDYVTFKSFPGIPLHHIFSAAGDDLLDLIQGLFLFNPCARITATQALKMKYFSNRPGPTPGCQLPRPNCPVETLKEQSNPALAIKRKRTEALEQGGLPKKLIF
# [4] = target: Receptor-type tyrosine-protein kinase FLT3 (Homo sapiens) (UniProt P36888); assay: Inhibition of wild-type human partial length FLT3 (V592 to Y969 residues) expressed in bacterial expression system assessed as residual activity at 10 uM by Kinomescan method relative to control
# Chain of Receptor-type tyrosine-protein kinase FLT3 (Homo sapiens) (P36888 whole entry, the tested form may be a part): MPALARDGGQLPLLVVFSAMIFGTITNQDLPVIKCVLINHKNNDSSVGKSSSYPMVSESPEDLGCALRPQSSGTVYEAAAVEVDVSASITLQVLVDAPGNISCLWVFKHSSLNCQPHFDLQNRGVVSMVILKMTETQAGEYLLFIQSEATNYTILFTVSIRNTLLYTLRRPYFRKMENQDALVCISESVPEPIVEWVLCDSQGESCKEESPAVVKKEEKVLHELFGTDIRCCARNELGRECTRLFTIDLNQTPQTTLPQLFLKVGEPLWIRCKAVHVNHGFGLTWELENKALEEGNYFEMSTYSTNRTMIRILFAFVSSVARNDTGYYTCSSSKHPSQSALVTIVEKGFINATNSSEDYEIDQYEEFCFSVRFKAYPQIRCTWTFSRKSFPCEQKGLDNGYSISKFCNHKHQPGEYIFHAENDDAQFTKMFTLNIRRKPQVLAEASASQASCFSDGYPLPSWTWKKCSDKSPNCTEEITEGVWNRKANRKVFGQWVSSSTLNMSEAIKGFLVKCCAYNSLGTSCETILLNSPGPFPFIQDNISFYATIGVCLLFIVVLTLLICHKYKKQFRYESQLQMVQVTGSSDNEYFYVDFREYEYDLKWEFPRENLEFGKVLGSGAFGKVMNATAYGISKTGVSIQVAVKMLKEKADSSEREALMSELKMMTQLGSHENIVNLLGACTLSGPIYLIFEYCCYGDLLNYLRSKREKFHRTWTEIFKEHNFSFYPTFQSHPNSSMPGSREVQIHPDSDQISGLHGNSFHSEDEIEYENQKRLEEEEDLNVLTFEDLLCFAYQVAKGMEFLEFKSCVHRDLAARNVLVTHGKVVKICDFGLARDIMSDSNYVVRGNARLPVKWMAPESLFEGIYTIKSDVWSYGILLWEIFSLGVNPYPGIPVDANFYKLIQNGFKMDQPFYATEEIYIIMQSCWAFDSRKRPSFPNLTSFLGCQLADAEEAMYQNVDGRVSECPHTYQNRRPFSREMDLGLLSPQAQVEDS
# [5] = target: Mast/stem cell growth factor receptor Kit (Homo sapiens) (UniProt P10721); assay: Inhibition of wild-type human partial length KIT (I571 to D952 residues) expressed in bacterial expression system assessed as residual activity at 10 uM by Kinomescan method relative to control
# [6] = target: MAP kinase-interacting serine/threonine-protein kinase 2 (Homo sapiens) (UniProt Q9HBH9); assay: Inhibition of wild-type human partial length MKNK2 (G63 to S388 residues) expressed in mammalian expression system assessed as residual activity at 10 uM by Kinomescan method relative to control
# Chain of MAP kinase-interacting serine/threonine-protein kinase 2 (Homo sapiens) (Q9HBH9 whole entry, looked up, the tested form may be a part): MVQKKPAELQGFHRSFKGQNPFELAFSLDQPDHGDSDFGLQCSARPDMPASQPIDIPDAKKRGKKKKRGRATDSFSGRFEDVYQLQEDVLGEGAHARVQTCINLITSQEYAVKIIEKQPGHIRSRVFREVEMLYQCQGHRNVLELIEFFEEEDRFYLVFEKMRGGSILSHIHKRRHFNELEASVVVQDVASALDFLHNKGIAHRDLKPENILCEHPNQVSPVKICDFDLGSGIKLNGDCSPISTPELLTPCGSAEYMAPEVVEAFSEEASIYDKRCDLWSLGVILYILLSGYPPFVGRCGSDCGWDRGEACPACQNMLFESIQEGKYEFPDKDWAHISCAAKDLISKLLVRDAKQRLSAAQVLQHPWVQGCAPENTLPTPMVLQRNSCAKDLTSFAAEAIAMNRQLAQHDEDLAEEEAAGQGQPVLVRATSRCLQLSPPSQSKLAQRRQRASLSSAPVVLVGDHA
# [7] = target: Platelet-derived growth factor receptor alpha (Homo sapiens) (UniProt P16234); assay: Inhibition of wild-type human partial length PDGFRA (V575 to D1002 residues) expressed in mammalian expression system assessed as residual activity at 10 uM by Kinomescan method relative to control
# Chain of Platelet-derived growth factor receptor alpha (Homo sapiens) (P16234 whole entry, the tested form may be a part): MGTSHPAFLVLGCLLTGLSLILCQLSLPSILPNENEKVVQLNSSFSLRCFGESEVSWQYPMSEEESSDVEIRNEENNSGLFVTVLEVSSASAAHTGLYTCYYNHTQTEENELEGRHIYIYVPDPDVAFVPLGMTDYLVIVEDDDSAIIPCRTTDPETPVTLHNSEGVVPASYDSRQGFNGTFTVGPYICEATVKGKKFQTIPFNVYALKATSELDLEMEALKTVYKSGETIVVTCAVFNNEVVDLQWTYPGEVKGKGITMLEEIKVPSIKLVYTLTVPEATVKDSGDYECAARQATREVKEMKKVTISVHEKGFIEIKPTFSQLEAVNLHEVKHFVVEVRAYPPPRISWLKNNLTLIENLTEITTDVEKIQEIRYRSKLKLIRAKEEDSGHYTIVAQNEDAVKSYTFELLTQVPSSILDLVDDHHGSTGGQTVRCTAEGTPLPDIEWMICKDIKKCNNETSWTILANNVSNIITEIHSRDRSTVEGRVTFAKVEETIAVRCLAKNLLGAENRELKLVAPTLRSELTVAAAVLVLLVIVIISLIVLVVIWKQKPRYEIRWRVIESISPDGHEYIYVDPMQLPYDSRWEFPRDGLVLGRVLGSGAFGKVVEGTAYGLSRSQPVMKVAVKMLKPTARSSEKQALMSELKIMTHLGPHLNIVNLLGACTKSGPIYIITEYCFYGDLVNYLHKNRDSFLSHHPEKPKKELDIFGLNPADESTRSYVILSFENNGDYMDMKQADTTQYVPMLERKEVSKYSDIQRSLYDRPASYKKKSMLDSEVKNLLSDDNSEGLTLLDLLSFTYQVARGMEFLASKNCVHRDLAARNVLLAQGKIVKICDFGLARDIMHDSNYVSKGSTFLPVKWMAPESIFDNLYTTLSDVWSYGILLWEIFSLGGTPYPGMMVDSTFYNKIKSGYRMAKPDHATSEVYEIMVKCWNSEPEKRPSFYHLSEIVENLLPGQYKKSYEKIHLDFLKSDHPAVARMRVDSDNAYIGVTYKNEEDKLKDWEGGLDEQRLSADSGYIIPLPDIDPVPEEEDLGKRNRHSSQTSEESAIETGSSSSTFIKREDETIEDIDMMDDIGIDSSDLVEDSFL
# [8] = target: Platelet-derived growth factor receptor beta (Homo sapiens) (UniProt P09619); assay: Inhibition of wild-type human partial length PDGFRB (V582 to Y1009 residues) expressed in bacterial expression system assessed as residual activity at 10 uM by Kinomescan method relative to control
# Chain of Platelet-derived growth factor receptor beta (Homo sapiens) (P09619 whole entry, the tested form may be a part): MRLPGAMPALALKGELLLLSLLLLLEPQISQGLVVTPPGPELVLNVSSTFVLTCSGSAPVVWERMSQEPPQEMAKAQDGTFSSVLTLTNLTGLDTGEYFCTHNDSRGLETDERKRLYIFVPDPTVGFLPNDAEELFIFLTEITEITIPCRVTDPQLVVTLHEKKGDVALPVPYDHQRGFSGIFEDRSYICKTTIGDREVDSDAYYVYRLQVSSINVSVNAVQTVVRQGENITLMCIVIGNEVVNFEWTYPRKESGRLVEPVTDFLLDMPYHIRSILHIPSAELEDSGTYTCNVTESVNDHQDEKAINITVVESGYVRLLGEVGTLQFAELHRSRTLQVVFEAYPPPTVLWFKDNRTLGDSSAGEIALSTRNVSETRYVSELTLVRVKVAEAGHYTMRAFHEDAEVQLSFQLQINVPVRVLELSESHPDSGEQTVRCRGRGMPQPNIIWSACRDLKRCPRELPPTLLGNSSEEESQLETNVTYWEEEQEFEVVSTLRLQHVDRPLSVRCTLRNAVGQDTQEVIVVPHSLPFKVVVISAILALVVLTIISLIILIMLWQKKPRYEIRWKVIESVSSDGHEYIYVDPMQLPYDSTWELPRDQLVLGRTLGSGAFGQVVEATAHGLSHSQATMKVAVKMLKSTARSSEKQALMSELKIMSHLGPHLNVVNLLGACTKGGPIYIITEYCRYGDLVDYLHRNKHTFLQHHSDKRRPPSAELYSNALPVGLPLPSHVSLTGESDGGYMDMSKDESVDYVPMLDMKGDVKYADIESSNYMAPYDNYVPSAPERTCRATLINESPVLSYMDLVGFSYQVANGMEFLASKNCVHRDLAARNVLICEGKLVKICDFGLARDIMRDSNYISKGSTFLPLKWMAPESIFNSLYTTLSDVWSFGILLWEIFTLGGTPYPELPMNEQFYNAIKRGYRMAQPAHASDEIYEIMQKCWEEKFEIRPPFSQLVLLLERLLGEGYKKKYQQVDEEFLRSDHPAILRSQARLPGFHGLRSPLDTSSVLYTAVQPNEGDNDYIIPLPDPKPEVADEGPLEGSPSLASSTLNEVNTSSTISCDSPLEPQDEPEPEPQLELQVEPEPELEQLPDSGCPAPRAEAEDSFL
# [9] = target: High affinity nerve growth factor receptor (Homo sapiens) (UniProt P04629); assay: Inhibition of wild-type human partial length TRKA (G475 to G790 residues) expressed in mammalian expression system assessed as residual activity at 10 uM by Kinomescan method relative to control
# Chain of High affinity nerve growth factor receptor (Homo sapiens) (P04629 33-796 limits assumed): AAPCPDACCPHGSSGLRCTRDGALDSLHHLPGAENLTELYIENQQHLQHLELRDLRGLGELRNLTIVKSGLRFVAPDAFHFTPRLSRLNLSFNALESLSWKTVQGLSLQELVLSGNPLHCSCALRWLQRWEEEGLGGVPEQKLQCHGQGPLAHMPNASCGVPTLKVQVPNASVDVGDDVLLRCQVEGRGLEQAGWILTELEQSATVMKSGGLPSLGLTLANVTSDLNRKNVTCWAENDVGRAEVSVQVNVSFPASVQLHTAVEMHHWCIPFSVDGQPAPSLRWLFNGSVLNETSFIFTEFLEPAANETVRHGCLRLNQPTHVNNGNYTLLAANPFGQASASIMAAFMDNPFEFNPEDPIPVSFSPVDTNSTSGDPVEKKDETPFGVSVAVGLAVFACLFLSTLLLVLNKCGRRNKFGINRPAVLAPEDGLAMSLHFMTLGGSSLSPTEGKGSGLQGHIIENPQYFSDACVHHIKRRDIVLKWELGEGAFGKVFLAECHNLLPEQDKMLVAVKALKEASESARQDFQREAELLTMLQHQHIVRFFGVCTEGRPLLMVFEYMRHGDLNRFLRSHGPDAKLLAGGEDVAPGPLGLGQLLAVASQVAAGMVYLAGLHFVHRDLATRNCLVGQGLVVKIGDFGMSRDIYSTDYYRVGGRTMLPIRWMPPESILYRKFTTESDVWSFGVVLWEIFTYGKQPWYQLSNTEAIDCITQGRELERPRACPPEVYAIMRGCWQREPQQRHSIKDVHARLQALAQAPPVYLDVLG
Structure (SMILES),EC50 (dengue virus type 2),IC50 [2],CC50 at 48 h [1],other results
COc1cc(-c2cnc3c(-c4cccc(NC(=O)N5CCCC5)c4)snc3c2)ccc1N,6 µM,,> 20 µM,
CCC(=O)Nc1ccc(-c2snc3cc(-c4ccc(N)c(OC)c4)cnc23)cc1,,> 1.1 µM,,
COc1cc(-c2cnc3c(-c4cccc(NC(=O)C(C)C)c4)snc3c2)ccc1N,3.8 µM,,14 µM,
COc1cc(-c2cnc3c(-c4cccc(NC(=O)C5CC5)c4)snc3c2)ccc1N,3.6 µM,,15 µM,
COc1cc(-c2cnc3c(-c4cccc(NC(=O)N5CCOCC5)c4)snc3c2)ccc1N,7.9 µM,,> 20 µM,
CCC(=O)Nc1cccc(-c2snc3cc(-c4ccc(N)c(OC)c4)cnc23)c1,1.9 µM,,9.9 µM,
C#Cc1cccc(Nc2ncnc3cc(OCCOC)c(OCCOC)cc23)c1 [ERLOTINIB],12 µM,,> 20 µM,

# Second part, led by results:
EC50 (dengue virus type 2),IC50 [2],Structure (SMILES),CC50 at 48 h [1],other results
4.1 µM,,COc1cc(-c2cnc3c(N4CCCC(CNC(=O)N5CCCC5)C4)snc3c2)ccc1N (stereo not drawn),> 20 µM,
3.9 µM,,COc1cc(-c2cnc3c(N4CCCC(CNC(=O)c5ccccc5)C4)snc3c2)ccc1N (stereo not drawn),> 20 µM,
,0.051 µM,COc1cc(-c2cnc3c(N4CCOCC4)snc3c2)ccc1N,,
4 µM,0.014 µM,COc1cc(-c2cnc3c(N4CCCC(CNC(=O)C5CC5)C4)snc3c2)ccc1N (stereo not drawn),> 20 µM,
2.6 µM,,COc1cc(-c2cnc3c(N4CCCC(CNC(=O)C5CCCC5)C4)snc3c2)ccc1N (stereo not drawn),> 20 µM,
0.96 µM,,COc1cc(-c2cnc3c(N4C[C@@H](C)O[C@@H](C)C4)snc3c2)ccc1N,> 20 µM,
,0.36 µM,COc1cc(-c2cnc3c(N4CCC[C@@H](CNC(=O)C5CC5)C4)snc3c2)ccc1N,,
7.5 µM,0.013 µM,COc1cc(-c2cnc3c(N4CCC[C@H](CNC(=O)C5CC5)C4)snc3c2)ccc1N,> 20 µM,Activity [3]: < 10%; Activity [4]: < 10%; Activity [5]: < 10%; Activity [6]: < 10%; Activity [7]: < 10%; Activity [8]: < 10%; Activity [9]: < 10%
1.8 µM,,COc1cc(-c2cnc3c(-c4cccc(NC(=O)C5CCCC5)c4)snc3c2)ccc1N,13 µM,
